Measurements published in US20190119729A1, “METHOD OF DETECTING AND TREATING P. ACNES AND KIT THEREOF” (priority 2016, published 2019).
In brackets after ≈: the same amount, converted by molar mass.

Experiments:
[1] = system: P. acnes clinical isolates (clindamycin resistant); assay: Antimicrobial susceptibility of clindamycin resistant P. acnes clinical isolates against various antibiotics (Table 2); type: cell-based; conditions: for MIC: Cutibacterium acnes; for susceptibility of the strains as indicated by MIC values: all the clindamycin, erythromycin resistant strains of Table 2
Source text: Various clinical isolates are obtained from patients carrying Clindamycin Resistant P. acnes and their antimicrobial susceptibility to fluoroquinolone antibiotics is studied vis-à-vis susceptibility to Clindamycin and Erythromycin.

P. acnes isolates = assay: Antimicrobial susceptibility patterns of P. acnes isolates against different antibiotics (Table 1); type: cell-based; conditions: Cutibacterium acnes
Source text: Table 1 below depicts the antimicrobial susceptibility patterns of P. acnes isolates against different antibiotics: […]

P. acnes = conditions: in those receiving prolonged antibiotic therapy with the drug (Leyden et al 1983); cited from earlier work
[2] = isolate V21A1, phylotype IA1, type IV, 23S rRNA A2059G
[3] = isolate V21A2, phylotype IB, type I, 23S rRNA A2058G
[4] = isolate V21A3, phylotype IB, type I, 23S rRNA A2058G
[5] = isolate V21A4, phylotype IB, type I, 23S rRNA A2058G
[6] = isolate V21A5, phylotype IA1, type IV, 23S rRNA A2059G
[7] = isolate V21A6, phylotype IA1, type IV, 23S rRNA A2059G
[8] = isolate V21A7, phylotype IA1, type IV, 23S rRNA A2059G
[9] = isolate V21A8, phylotype IA1, type IV, 23S rRNA A2059G
[10] = isolate V21A9, phylotype IB, type I, 23S rRNA A2058G
[11] = isolate V21A10, phylotype IB, type I, 23S rRNA A2058G
[12] = isolate V21B2, phylotype IB, type I, 23S rRNA A2058G
[13] = isolate V21B4, phylotype IB, type I, 23S rRNA A2058G
[14] = isolate V21B6, phylotype IB, type I, 23S rRNA A2058G
[15] = isolate V21B7, phylotype IB, type I, 23S rRNA A2058G
[16] = isolate V21B8, phylotype IB, type I, 23S rRNA A2058G

SMILES | MIC ([1]; P. acnes strain V21A-7) | MIC ([1]; P. acnes strain V21B-1) | MIC ([1]; P. acnes strain V21B-2) | MIC ([1]; P. acnes strain V21B-3) | MIC ([1]; P. acnes strain V21B-4) | MIC ([1]; P. acnes strain V21B-5) | MIC ([1]; P. acnes strain V21B-6) | MIC ([1]; P. acnes strain V21B-7) | MIC ([1]; P. acnes strain V21B-8) | susceptibility of the strains as indicated by MIC values [1] | MIC ([1]; P. acnes strain V21A-1) | MIC ([1]; P. acnes strain V21A-2) | MIC ([1]; P. acnes strain V21A-3) | MIC ([1]; P. acnes strain V21A-5) | MIC ([1]; P. acnes strain V21A-6) | MIC ([1]; P. acnes strain V21A-8) | MIC ([1]; P. acnes strain V21A-9) | MIC (P. acnes isolates; [2]) | MIC (P. acnes isolates; [3]) | MIC (P. acnes isolates; [4]) | other results
N[C@@H]1CCCCN(c2c(F)cc3c(=O)c(C(=O)O)cn(C4CC4)c3c2Cl)C1 [Besifloxacin, besifloxacin] | 0.13 µg/mL (≈ 0.33 µM) | 0.5 µg/mL (≈ 1.27 µM) | 0.25 µg/mL (≈ 0.635 µM) | 0.25 µg/mL (≈ 0.635 µM) | 0.25 µg/mL (≈ 0.635 µM) | 0.5 µg/mL (≈ 1.27 µM) | 0.25 µg/mL (≈ 0.635 µM) | 0.25 µg/mL (≈ 0.635 µM) | 0.25 µg/mL (≈ 0.635 µM) | susceptible | – | – | – | – | – | – | – | – | – | – | –
CCC[C@@H]1C[C@@H](C(=O)N[C@@H]([C@H]2O[C@H](SC)[C@H](O)[C@@H](O)[C@H]2O)[C@H](C)Cl)N(C)C1 [Clindamycin, clindamycin] | 0.5 to 2 µg/mL (≈ 1.18 to 4.71 µM) | 64 µg/mL (≈ 151 µM) | 16 to 64 µg/mL (≈ 37.6 to 151 µM) | 64 µg/mL (≈ 151 µM) | 32 to 64 µg/mL (≈ 75.3 to 151 µM) | 1 to 4 µg/mL (≈ 2.35 to 9.41 µM) | 16 to 64 µg/mL (≈ 37.6 to 151 µM) | 16 to 64 µg/mL (≈ 37.6 to 151 µM) | 16 to 64 µg/mL (≈ 37.6 to 151 µM) | – | 1 to 8 µg/mL (≈ 2.35 to 18.8 µM) | 8 to 64 µg/mL (≈ 18.8 to 151 µM) | 8 to 32 µg/mL (≈ 18.8 to 75.3 µM) | 1 µg/mL (≈ 2.35 µM) | 1 to 2 µg/mL (≈ 2.35 to 4.71 µM) | 1 to 2 µg/mL (≈ 2.35 to 4.71 µM) | 16 to 32 µg/mL (≈ 37.6 to 75.3 µM) | 1 to 8 µg/mL (≈ 2.35 to 18.8 µM) | 8 to 64 µg/mL (≈ 18.8 to 151 µM) | 8 to 32 µg/mL (≈ 18.8 to 75.3 µM) | MIC (P. acnes isolates; [5]): 16 to 64 µg/mL (≈ 37.6 to 151 µM); MIC (P. acnes isolates; [6]): 1 µg/mL (≈ 2.35 µM); MIC (P. acnes isolates; [7]): 1 to 2 µg/mL (≈ 2.35 to 4.71 µM); MIC (P. acnes isolates; [8]): 0.5 to 2 µg/mL (≈ 1.18 to 4.71 µM); MIC (P. acnes isolates; [9]): 1 to 2 µg/mL (≈ 2.35 to 4.71 µM); MIC (P. acnes isolates; [10]): 16 to 32 µg/mL (≈ 37.6 to 75.3 µM); MIC (P. acnes isolates; [11]): 16 to 64 µg/mL (≈ 37.6 to 151 µM); MIC (P. acnes isolates; [12]): 16 to 64 µg/mL (≈ 37.6 to 151 µM); MIC (P. acnes isolates; [13]): 32 to 64 µg/mL (≈ 75.3 to 151 µM); MIC (P. acnes isolates; [14]): 16 to 64 µg/mL (≈ 37.6 to 151 µM); MIC (P. acnes isolates; [15]): 16 to 64 µg/mL (≈ 37.6 to 151 µM); MIC (P. acnes isolates; [16]): 16 to 64 µg/mL (≈ 37.6 to 151 µM)
CC[C@H]1OC(=O)[C@H](C)[C@@H](O[C@H]2C[C@@](C)(OC)[C@@H](O)[C@H](C)O2)[C@H](C)[C@@H](O[C@@H]2O[C@H](C)C[C@H](N(C)C)[C@H]2O)[C@](C)(O)C[C@@H](C)C(=O)[C@H](C)[C@@H](O)[C@]1(C)O [Erythromycin, erythromycin] | 100 to 200 µg/mL (≈ 136 to 273 µM) | > 200 µg/mL | > 200 µg/mL | > 200 µg/mL | 200 µg/mL (≈ 273 µM) | > 200 µg/mL | > 200 µg/mL | > 200 µg/mL | > 200 µg/mL | – | 50 to 200 µg/mL (≈ 68.1 to 273 µM) | 50 to 200 µg/mL (≈ 68.1 to 273 µM) | 100 to 200 µg/mL (≈ 136 to 273 µM) | 100 to 200 µg/mL (≈ 136 to 273 µM) | 100 to 200 µg/mL (≈ 136 to 273 µM) | 100 to 200 µg/mL (≈ 136 to 273 µM) | 100 to 200 µg/mL (≈ 136 to 273 µM) | 50 to 200 µg/mL (≈ 68.1 to 273 µM) | 50 to 200 µg/mL (≈ 68.1 to 273 µM) | 100 to 200 µg/mL (≈ 136 to 273 µM) | MIC ([1]; P. acnes strain V21A-4): 100 to 200 µg/mL (≈ 136 to 273 µM); MIC ([1]; P. acnes strain V21A-10): 100 to 200 µg/mL (≈ 136 to 273 µM); MIC (P. acnes isolates; [5]): 100 to 200 µg/mL (≈ 136 to 273 µM); MIC (P. acnes isolates; [6]): 100 to 200 µg/mL (≈ 136 to 273 µM); MIC (P. acnes isolates; [7]): 100 to 200 µg/mL (≈ 136 to 273 µM); MIC (P. acnes isolates; [8]): 100 to 200 µg/mL (≈ 136 to 273 µM); MIC (P. acnes isolates; [9]): 100 to 200 µg/mL (≈ 136 to 273 µM); MIC (P. acnes isolates; [10]): 100 to 200 µg/mL (≈ 136 to 273 µM); MIC (P. acnes isolates; [11]): 100 to 200 µg/mL (≈ 136 to 273 µM); MIC (P. acnes isolates; [12]): > 200 µg/mL; MIC (P. acnes isolates; isolate V21B3, phylotype IB, type I, 23S rRNA A2058G): > 200 µg/mL; MIC (P. acnes isolates; [13]): > 200 µg/mL; MIC (P. acnes isolates; [14]): > 200 µg/mL; MIC (P. acnes isolates; [15]): > 200 µg/mL; MIC (P. acnes isolates; [16]): > 200 µg/mL; increase of average MIC (P. acnes): 100 fold
C[C@H]1COc2c(N3CCN(C)CC3)c(F)cc3c(=O)c(C(=O)O)cn1c23 [Levofloxacin, levofloxacin] | – | 0.5 µg/mL (≈ 1.38 µM) | 0.3 µg/mL (≈ 0.83 µM) | 0.5 µg/mL (≈ 1.38 µM) | 0.5 µg/mL (≈ 1.38 µM) | 0.5 µg/mL (≈ 1.38 µM) | 0.5 µg/mL (≈ 1.38 µM) | 0.3 µg/mL (≈ 0.83 µM) | 0.5 µg/mL (≈ 1.38 µM) | – | < 0.13 µg/mL | – | – | < 0.13 µg/mL | – | < 0.13 µg/mL | – | – | – | – | –
CC1CCc2c(N3CCC(O)CC3)c(F)cc3c(=O)c(C(=O)O)cn1c23 (centres unmarked) [Nadifloxacin, nadifloxacin] | – | 0.5 µg/mL (≈ 1.39 µM) | 0.5 µg/mL (≈ 1.39 µM) | 0.5 µg/mL (≈ 1.39 µM) | 0.5 µg/mL (≈ 1.39 µM) | 0.5 µg/mL (≈ 1.39 µM) | 0.5 µg/mL (≈ 1.39 µM) | 0.5 µg/mL (≈ 1.39 µM) | 0.5 µg/mL (≈ 1.39 µM) | susceptible | < 0.13 µg/mL | 0.3 µg/mL (≈ 0.832 µM) | – | < 0.13 µg/mL | 0.3 µg/mL (≈ 0.832 µM) | < 0.13 µg/mL | 0.3 µg/mL (≈ 0.832 µM) | – | – | – | MIC ([1]; P. acnes strain V21A-4): 0.3 µg/mL (≈ 0.832 µM); MIC ([1]; P. acnes strain V21A-10): 0.3 µg/mL (≈ 0.832 µM)
